Tests used:
Experiment in all cases: Post-emergence herbicidal glasshouse test
Type in all cases: in vivo
Conditions in all cases: post-emergence spray, evaluated after 13 days, five-point scale
[1] = test system: Abutilon theophrasti (ABUTH)
Description: (§1) Seeds of a variety of test species are sown in standard soil in pots (Ipomoea hederacea (IPOHE), Abutilon theophrasti (ABUTH), Amaranthus retoflexus (AMARE), Echinochloa crus-galli (ECHCG), Setaria faberi (SETFA)). After 8 days cultivation under controlled conditions in a glasshouse (at 24/16° C., day/night; 14 hours light; 65% humidity), the plants are sprayed with an aqueous spray solution derived from the formulation of the technical active ingredient in acetone / water (50:50) solution containing 0.5% Tween 20 (polyoxyethelyene sorbitan monolaurate, CAS RN 9005-64-5). Compounds are applied at 1000 g/ha unless otherwise stated. The test plants are then grown in a glasshouse under controlled conditions in a glasshouse (at 24/16° C., day/night; 14 hours light; 65% humidity) and watered twice daily. After 13 days the test is evaluated for the percentage damage caused to the plant. The biological activities are shown in the following table on a five-point scale (5=81-100%; 4=61-80%; 3=41-60%; 2=21-40%; 1=0-20%).

[2] = test system: Amaranthus retoflexus (AMARE)
Description: as §1

[3] = test system: Echinochloa crus-galli (ECHCG)
Description: as §1

[4] = test system: Ipomoea hederacea (IPOHE)
Description: as §1

[5] = test system: Setaria faberi (SETFA)
Description: as §1

Row | SMILES | percentage damage caused to the plant, ABUTH ([1]; 1000 g/ha) | percentage damage caused to the plant, AMARE ([2]; 1000 g/ha) | percentage damage caused to the plant, ECHCG ([3]; 1000 g/ha) | percentage damage caused to the plant, IPOHE ([4]; 1000 g/ha) | percentage damage caused to the plant, SETFA ([5]; 1000 g/ha) | percentage damage caused to the plant, ABUTH ([1]; applied at 500 gai/ha) | percentage damage caused to the plant, AMARE ([2]; applied at 500 gai/ha) | percentage damage caused to the plant, ECHCG ([3]; applied at 500 gai/ha) | percentage damage caused to the plant, IPOHE ([4]; applied at 500 gai/ha) | percentage damage caused to the plant, SETFA ([5]; applied at 500 gai/ha)
1 | N#Cc1cc(Br)c(O)c(-c2cccc(Cl)c2F)c1 [Compound 1.045] | 3 (3=41-60%) | 5 (5=81-100%) | 1 (1=0-20%) | 1 (1=0-20%) | 1 (1=0-20%) | – | – | – | – | –
2 | N#Cc1cc(Br)c(O)c(-c2cccc(F)c2)c1 [Compound 1.046, 3-bromo-5-(3-fluorophenyl)-4-hydroxy-benzonitrile] | 5 (5=81-100%) | 5 (5=81-100%) | 2 (2=21-40%) | 3 (3=41-60%) | 3 (3=41-60%) | – | – | – | – | –
3 | N#Cc1cc(Br)c(O)c(-c2ccccc2)c1 [Compound 1.047] | 5 (5=81-100%) | 5 (5=81-100%) | 1 (1=0-20%) | 3 (3=41-60%) | 2 (2=21-40%) | – | – | – | – | –
4 | N#Cc1cc(Br)c(O)c(-c2ccc(F)cc2)c1 [Compound 1.048] | 5 (5=81-100%) | 5 (5=81-100%) | 2 (2=21-40%) | 2 (2=21-40%) | 2 (2=21-40%) | – | – | – | – | –
5 | N#Cc1cc(Br)c(O)c(-c2cncc(F)c2)c1 [Compound 1.052] | 5 (5=81-100%) | 5 (5=81-100%) | 1 (1=0-20%) | 1 (1=0-20%) | 3 (3=41-60%) | – | – | – | – | –
6 | N#Cc1cccc(-c2cc(C#N)cc(Br)c2O)c1 [Compound 1.053] | 2 (2=21-40%) | 5 (5=81-100%) | 1 (1=0-20%) | 3 (3=41-60%) | 1 (1=0-20%) | – | – | – | – | –
7 | N#Cc1cc(Br)c(O)c(-c2cccc(Cl)c2)c1 [Compound 1.054] | 5 (5=81-100%) | 5 (5=81-100%) | 3 (3=41-60%) | 2 (2=21-40%) | 2 (2=21-40%) | – | – | – | – | –
8 | N#Cc1cc(Br)c(O)c(-c2ccc(C(F)(F)F)cc2)c1 [Compound 1.058] | 1 (1=0-20%) | 5 (5=81-100%) | 2 (2=21-40%) | 2 (2=21-40%) | 3 (3=41-60%) | – | – | – | – | –
9 | N#Cc1cc(Br)c(O)c(-c2cccc(C(F)(F)F)c2)c1 [Compound 1.060] | 4 (4=61-80%) | 5 (5=81-100%) | 1 (1=0-20%) | 2 (2=21-40%) | 1 (1=0-20%) | – | – | – | – | –
10 | N#Cc1cc(Br)c(O)c(-c2cccc(Br)c2)c1 [Compound 1.061] | 3 (3=41-60%) | 5 (5=81-100%) | 1 (1=0-20%) | 3 (3=41-60%) | 1 (1=0-20%) | – | – | – | – | –
11 | N#Cc1cncc(-c2cc(C#N)cc(Br)c2O)c1 [Compound 1.067] | 3 (3=41-60%) | 1 (1=0-20%) | 2 (2=21-40%) | 2 (2=21-40%) | 2 (2=21-40%) | – | – | – | – | –
12 | N#Cc1cc(Br)c(O)c(-c2ccc(F)c(F)c2)c1 [Compound 1.130] | 5 (5=81-100%) | 5 (5=81-100%) | 1 (1=0-20%) | 2 (2=21-40%) | 1 (1=0-20%) | – | – | – | – | –
13 | N#Cc1cc(Br)c(O)c(-c2cccs2)c1 [Compound 1.134] | 4 (4=61-80%) | 4 (4=61-80%) | 1 (1=0-20%) | 4 (4=61-80%) | 1 (1=0-20%) | – | – | – | – | –
14 | N#Cc1cc(Br)c(O)c(-c2ccsc2)c1 [Compound 1.135] | 5 (5=81-100%) | 2 (2=21-40%) | 1 (1=0-20%) | 5 (5=81-100%) | 1 (1=0-20%) | – | – | – | – | –
15 | N#Cc1cccc(-c2cc(C#N)cc(C(F)(F)F)c2O)c1 [Compound 1.145] | – | – | – | – | – | 1 (1=0-20%) | 1 (1=0-20%) | 1 (1=0-20%) | 3 (3=41-60%) | 1 (1=0-20%)
16 | N#Cc1cc(-c2cc(F)cc(Cl)c2)c(O)c(C(F)(F)F)c1 [Compound 1.148] | – | – | – | – | – | 1 (1=0-20%) | 3 (3=41-60%) | 1 (1=0-20%) | 4 (4=61-80%) | 1 (1=0-20%)
17 | N#Cc1cc(-c2ccc(OC(F)(F)F)cc2)c(O)c(C(F)(F)F)c1 [Compound 1.151] | 1 (1=0-20%) | 5 (5=81-100%) | 1 (1=0-20%) | 3 (3=41-60%) | 1 (1=0-20%) | – | – | – | – | –
18 | N#Cc1cc(-c2ccnc(C(F)(F)F)c2)c(O)c(C(F)(F)F)c1 [Compound 1.158] | 1 (1=0-20%) | 4 (4=61-80%) | 1 (1=0-20%) | 2 (2=21-40%) | 1 (1=0-20%) | – | – | – | – | –
19 | N#Cc1cc(-c2ccc(F)c(Cl)c2)c(O)c(C(F)(F)F)c1 [Compound 1.160] | 1 (1=0-20%) | 5 (5=81-100%) | 1 (1=0-20%) | 2 (2=21-40%) | 1 (1=0-20%) | – | – | – | – | –
20 | Cc1cc(F)cc(-c2cc(C#N)cc(C(F)(F)F)c2O)c1 [Compound 1.162] | 1 (1=0-20%) | 2 (2=21-40%) | 1 (1=0-20%) | 3 (3=41-60%) | 1 (1=0-20%) | – | – | – | – | –
21 | N#Cc1cc(-c2cccc(OC(F)(F)F)c2)c(O)c(C(F)(F)F)c1 [Compound 1.165] | 1 (1=0-20%) | 3 (3=41-60%) | 1 (1=0-20%) | 4 (4=61-80%) | 1 (1=0-20%) | – | – | – | – | –
22 | N#Cc1cc(-c2cc(F)c(F)c(F)c2)c(O)c(C(F)(F)F)c1 [Compound 1.182] | 4 (4=61-80%) | 5 (5=81-100%) | 1 (1=0-20%) | 5 (5=81-100%) | 1 (1=0-20%) | – | – | – | – | –
23 | N#Cc1cc(-c2cc(F)cc(F)c2)c(O)c(C(F)(F)F)c1 [Compound 1.183] | 4 (4=61-80%) | 5 (5=81-100%) | 2 (2=21-40%) | 2 (2=21-40%) | 2 (2=21-40%) | – | – | – | – | –
24 | N#Cc1cc(-n2cc(F)cn2)c(O)c(C(F)(F)F)c1 [Compound 1.186] | 5 (5=81-100%) | 2 (2=21-40%) | 1 (1=0-20%) | 4 (4=61-80%) | 1 (1=0-20%) | – | – | – | – | –
25 | Cc1cn(-c2cc(C#N)cc(C(F)(F)F)c2O)nc1C(F)(F)F [Compound 1.187] | 1 (1=0-20%) | 5 (5=81-100%) | 1 (1=0-20%) | 1 (1=0-20%) | 1 (1=0-20%) | – | – | – | – | –
26 | N#Cc1cc(-n2cc(C(F)(F)F)cn2)c(O)c(C(F)(F)F)c1 [Compound 1.190] | 1 (1=0-20%) | 3 (3=41-60%) | 1 (1=0-20%) | 1 (1=0-20%) | 1 (1=0-20%) | – | – | – | – | –
27 | N#Cc1cc(-c2cccc(F)c2)c(O)c([N+](=O)[O-])c1 [Compound 1.191] | 4 (4=61-80%) | 5 (5=81-100%) | 2 (2=21-40%) | 3 (3=41-60%) | 2 (2=21-40%) | – | – | – | – | –

Reference: patent US20230024283A1, “HERBICIDAL COMPOUNDS” (SYNGENTA CROP PROTECTION AG, priority 2020, published 2023)
